Assay results as given in patent US20240024273A1, “TOPICAL ADMINISTRATION OF 2-(DIETHYLAMINO)ETHYL 2-(4-ISOBUTYLPHENYL)PROPRIONATE FOR TREATMENT OF DISEASES” (TECHFIELDS PHARMA CO., LTD., priority 2020, published 2024).

System: Subjects with Osteoarthritis of the Knee
Assay: Second Phase 2 study: safety (treatment-emergent adverse events)
Type: in vivo, human
Design: Serious Treatment-emergent Adverse Event: SAE Criteria: scale not given here
Excerpt: Safety assessments will be performed at each visit and will include assessment of AEs, vital signs (blood pressure, pulse rate, and oral temperature), clinical laboratories, physical examination, skin irritation, and electrocardiograms (ECGs) as indicated in the study flow chart, Table 47.
Safety assessments will include AEs, vital signs (blood pressures, pulse rate, and oral temperature), clinical laboratories, physical examination, skin irritation, and ECGs at various time points during the study as indicated in the study flow chart.
Adverse events of interest include: local skin reactions around the treated knee(s), upper stomach pain, GI bleeding, serious cardiovascular side effects (e.g., thrombotic events, myocardial infarction, or stroke), jaundice, elevated liver function tests, and nausea.
Safety analyses will be conducted on the SAS. Safety parameters will be listed and summarized using standard descriptive statistics, as appropriate. No formal statistical analyses are planned.

[1] = 4.375 mg, BID, subject 105/07/F64, abdominal aortic aneurysm
[2] = 8.75 mg, BID, subject 279/08/M66, Transient Ischemic Attack

CCN(CC)CCOC(=O)C(C)c1ccc(CC(C)C)cc1 (stereo not drawn) [2-(diethylamino)ethyl 2-(4-isobutylphenyl)propionate]
Serious Treatment-emergent Adverse Event (4.375 mg, BID, subject 105/07/F64, [aortic aneurysm] (Blood and Lymphatic System Disorders)): abdominal aortic aneurysm
Serious Treatment-emergent Adverse Event: Relationship to Study Drug [1]: Unrelated
Serious Treatment-emergent Adverse Event: SAE Criteria [1]: 1
Serious Treatment-emergent Adverse Event: Severity [1]: Severe
Serious Treatment-emergent Adverse Event: Outcome (4.375 mg, BID, subject 105/07/F64, abdominal aortic aneurysm, cell wraps: Results / in / Death): Death
GI disorders incidence rate (4.375 mg/knee BID): 4.2%
incidence rate of AEs possibly, probably, or definitely related to study drug (4.375 mg/knee BID): 33.8%
infections and infestations incidence rate (4.375 mg/knee BID): 32.4%
positive fecal occult blood test incidence rate (4.375 mg/knee BID): 7.0%
Abdominal Pain Upper: number of adverse events (4.375 mg/knee, BID, N = 71): 1
Abdominal Pain Upper: percentage of subjects with adverse events (4.375 mg/knee, BID, N = 71): 1.4%
Abdominal Pain Upper: subjects with adverse events (4.375 mg/knee, BID, N = 71): 1
Administration Site Conditions: number of adverse events (4.375 mg/knee, BID, N = 71): 1
Administration Site Conditions: percentage of subjects with adverse events (4.375 mg/knee, BID, N = 71): 1.4%
Administration Site Conditions: subjects with adverse events (4.375 mg/knee, BID, N = 71): 1
Alanine Aminotransferase Increased: number of adverse events (4.375 mg/knee, BID, N = 71): 1
Alanine Aminotransferase Increased: percentage of subjects with adverse events (4.375 mg/knee, BID, N = 71): 1.4%
Alanine Aminotransferase Increased: subjects with adverse events (4.375 mg/knee, BID, N = 71): 1
Application Site Irritation: number of adverse events (4.375 mg/knee, BID, N = 71): 1
Application Site Irritation: percentage of subjects with adverse events (4.375 mg/knee, BID, N = 71): 1.4%
Application Site Irritation: subjects with adverse events (4.375 mg/knee, BID, N = 71): 1
Aspartate Aminotransferase Increased: number of adverse events (4.375 mg/knee, BID, N = 71): 3
Aspartate Aminotransferase Increased: percentage of subjects with adverse events (4.375 mg/knee, BID, N = 71): 4.2%
Aspartate Aminotransferase Increased: subjects with adverse events (4.375 mg/knee, BID, N = 71): 3
Back Pain: number of adverse events (4.375 mg/knee, BID, N = 71): 1(%)[1]
Back Pain: subjects with adverse events, number (percentage) (4.375 mg/knee, BID, N = 71): 1(%)[1]
Blood Alkaline Phosphatase Increased: number of adverse events (4.375 mg/knee, BID, N = 71): 1
Blood Alkaline Phosphatase Increased: percentage of subjects with adverse events (4.375 mg/knee, BID, N = 71): 1.4%
Blood Alkaline Phosphatase Increased: subjects with adverse events (4.375 mg/knee, BID, N = 71): 1
Blood Bilirubin Increased: number of adverse events (4.375 mg/knee, BID, N = 71): 1
Blood Bilirubin Increased: percentage of subjects with adverse events (4.375 mg/knee, BID, N = 71): 1.4%
Blood Bilirubin Increased: subjects with adverse events (4.375 mg/knee, BID, N = 71): 1
Contusion: number of adverse events (4.375 mg/knee, BID, N = 71): 2
Contusion: subjects with adverse events, number (percentage) (4.375 mg/knee, BID, N = 71): 2(2.8%)
Cough: number of adverse events (4.375 mg/knee, BID, N = 71): 1
Cough: subjects with adverse events, number (percentage) (4.375 mg/knee, BID, N = 71): 1(1.4%)
Ear Pain: number of adverse events (4.375 mg/knee, BID, N = 71): 1(%)[1]
Ear Pain: subjects with adverse events (4.375 mg/knee, BID, N = 71): 1(%)[1]
Ear and Labyrinth Disorders: number of adverse events (4.375 mg/knee, BID, N = 71): 1
Ear and Labyrinth Disorders: percentage of subjects with adverse events (4.375 mg/knee, BID, N = 71): 1.4%
Ear and Labyrinth Disorders: subjects with adverse events (4.375 mg/knee, BID, N = 71): 1
Fall: number of adverse events (4.375 mg/knee, BID, N = 71): 1
Fall: subjects with adverse events, number (percentage) (4.375 mg/knee, BID, N = 71): 1(1.4%)
Frequency of Positive Fecal Occult Blood Test (4.375 mg/knee, BID, N = 71): 6
Gamma-Glutamyltransferase Increased: number of adverse events (4.375 mg/knee, BID, N = 71): 2
Gamma-Glutamyltransferase Increased: percentage of subjects with adverse events (4.375 mg/knee, BID, N = 71): 2.8%
Gamma-Glutamyltransferase Increased: subjects with adverse events (4.375 mg/knee, BID, N = 71): 2
Gastrointestinal Disorders: number of adverse events (4.375 mg/knee, BID, N = 71): 3
Gastrointestinal Disorders: percentage of subjects with adverse events (4.375 mg/knee, BID, N = 71): 4.2%
Gastrointestinal Disorders: subjects with adverse events (4.375 mg/knee, BID, N = 71): 3
Headache: number of adverse events (4.375 mg/knee, BID, N = 71): 1
Headache: subjects with adverse events, number (percentage) (4.375 mg/knee, BID, N = 71): 1(1.4%)
Hypercholesterolaemia: number of adverse events (4.375 mg/knee, BID, N = 71): 1
Hypercholesterolaemia: percentage of subjects with adverse events (4.375 mg/knee, BID, N = 71): 1.4%
Hypercholesterolaemia: subjects with adverse events (4.375 mg/knee, BID, N = 71): 1
Hypertension: number of adverse events (4.375 mg/knee, BID, N = 71): 1
Hypertension: percentage of subjects with adverse events (4.375 mg/knee, BID, N = 71): 1.4%
Hypertension: subjects with adverse events (4.375 mg/knee, BID, N = 71): 1
Hypertriglyceridemia: number of adverse events (4.375 mg/knee, BID, N = 71): 6
Hypertriglyceridemia: percentage of subjects with adverse events (4.375 mg/knee, BID, N = 71): 7.0%
Hypertriglyceridemia: subjects with adverse events (4.375 mg/knee, BID, N = 71): 5
Infections and Infestations: number of adverse events (4.375 mg/knee, BID, N = 71): 24
Infections and Infestations: subjects with adverse events, number (percentage) (4.375 mg/knee, BID, N = 71): 23(32.4%)
Influenza: number of adverse events (4.375 mg/knee, BID, N = 71): 3
Injury, Poisoning and Procedural Complications: number of adverse events (4.375 mg/knee, BID, N = 71): 3
Investigations: number of adverse events (4.375 mg/knee, BID, N = 71): 11
Investigations: percentage of subjects with adverse events (4.375 mg/knee, BID, N = 71): 15.5%
Investigations: subjects with adverse events (4.375 mg/knee, BID, N = 71): 11
Metabolism and Nutrition Disorders: number of adverse events (4.375 mg/knee, BID, N = 71): 7
Metabolism and Nutrition Disorders: percentage of subjects with adverse events (4.375 mg/knee, BID, N = 71): 8.5%
Metabolism and Nutrition Disorders: subjects with adverse events (4.375 mg/knee, BID, N = 71): 6
Musculoskeletal Pain: number of adverse events (4.375 mg/knee, BID, N = 71): 1(%)[1]
Musculoskeletal Pain: subjects with adverse events, number (percentage) (4.375 mg/knee, BID, N = 71): 1(%)[1]
Musculoskeletal and Connective Tissue Disorders, Overall Total: number of adverse events (4.375 mg/knee, BID, N = 71): 3
Neck Pain: number of adverse events (4.375 mg/knee, BID, N = 71): 1(%)[1]
Neck Pain: subjects with adverse events, number (percentage) (4.375 mg/knee, BID, N = 71): 1(%)[1]
Nervous System Disorders: number of adverse events (4.375 mg/knee, BID, N = 71): 1
Nervous System Disorders: subjects with adverse events, number (percentage) (4.375 mg/knee, BID, N = 71): 1(1.4%)
Oropharyngeal Pain: number of adverse events (4.375 mg/knee, BID, N = 71): 2
Oropharyngeal Pain: subjects with adverse events, number (percentage) (4.375 mg/knee, BID, N = 71): 2(1.4%)
Rash: number of adverse events (4.375 mg/knee, BID, N = 71): 1
Rash: percentage of subjects with adverse events (4.375 mg/knee, BID, N = 71): 1.4%
Rash: subjects with adverse events (4.375 mg/knee, BID, N = 71): 1
Respiratory, Thoracic and Mediastinal Disorders: number of adverse events (4.375 mg/knee, BID, N = 71): 6
Respiratory, Thoracic and Mediastinal Disorders: subjects with adverse events, number (percentage) (4.375 mg/knee, BID, N = 71): 6(8.5%)
Rhinorrhoea: number of adverse events (4.375 mg/knee, BID, N = 71): 1
Rhinorrhoea: subjects with adverse events, number (percentage) (4.375 mg/knee, BID, N = 71): 1(1.4%)
Skin Irritation: number of adverse events (4.375 mg/knee, BID, N = 71): 1
Skin Irritation: percentage of subjects with adverse events (4.375 mg/knee, BID, N = 71): 1.4%
Skin Irritation: subjects with adverse events (4.375 mg/knee, BID, N = 71): 1
Skin and Subcutaneous Tissue Disorders: number of adverse events (4.375 mg/knee, BID, N = 71): 2
Skin and Subcutaneous Tissue Disorders: percentage of subjects with adverse events (4.375 mg/knee, BID, N = 71): 2.8%
Skin and Subcutaneous Tissue Disorders: subjects with adverse events (4.375 mg/knee, BID, N = 71): 2
Subjects with Positive Fecal Occult Blood Test (4.375 mg/knee, BID, N = 71): 5
Subjects with Positive Fecal Occult Blood Test, percentage (4.375 mg/knee, BID, N = 71): 7.0%
Throat Irritation: number of adverse events (4.375 mg/knee, BID, N = 71): 2
Throat Irritation: subjects with adverse events, number (percentage) (4.375 mg/knee, BID, N = 71): 2(2.8%)
Toothache: number of adverse events (4.375 mg/knee, BID, N = 71): 2
Toothache: percentage of subjects with adverse events (4.375 mg/knee, BID, N = 71): 2.8%
Toothache: subjects with adverse events (4.375 mg/knee, BID, N = 71): 2
Transaminases Increased: number of adverse events (4.375 mg/knee, BID, N = 71): 1
Transaminases Increased: percentage of subjects with adverse events (4.375 mg/knee, BID, N = 71): 1.4%
Transaminases Increased: subjects with adverse events (4.375 mg/knee, BID, N = 71): 1
Upper Respiratory Tract Infection: number of adverse events (4.375 mg/knee, BID, N = 71): 12
Urinary Tract Infection: number of adverse events (4.375 mg/knee, BID, N = 71): 8
Urinary Tract Infection: subjects with adverse events, number (percentage) (4.375 mg/knee, BID, N = 71): 8(11.3%)
Vascular Disorders: number of adverse events (4.375 mg/knee, BID, N = 71): 1
Vascular Disorders: percentage of subjects with adverse events (4.375 mg/knee, BID, N = 71): 1.4%
Vascular Disorders: subjects with adverse events (4.375 mg/knee, BID, N = 71): 1
White Blood Cell Count Decreased: number of adverse events (4.375 mg/knee, BID, N = 71): 2
White Blood Cell Count Decreased: percentage of subjects with adverse events (4.375 mg/knee, BID, N = 71): 2.8%
White Blood Cell Count Decreased: subjects with adverse events (4.375 mg/knee, BID, N = 71): 2
Serious Treatment-emergent Adverse Event: Duration [2]: < 11 days
Serious Treatment-emergent Adverse Event: SAE Criteria [2]: 6
Serious Treatment-emergent Adverse Event: Severity [2]: Severe
Serious Treatment-emergent Adverse Event: Relationship to Study Drug (8.75 mg, BID, subject 279/08/M66, Transient Ischemic Attack, cell wraps: Possible / unrelated): Possible
Serious Treatment-emergent Adverse Event: Outcome (8.75 mg, BID, subject 279/08/M66, Transient Ischemic Attack, cell wraps: Recovered/ resolved): Recovered/
Serious Treatment-emergent Adverse Event (8.75 mg, BID, subject 279/08/M66, [Thrombosis] (Vascular Disorders)): Transient Ischemic Attack
GI disorders incidence rate (8.75 mg/knee (BID)): 14.3%
incidence rate of AEs possibly, probably, or definitely related to study drug (8.75 mg/knee (BID)): 41.4%
infections and infestations incidence rate (8.75 mg/knee (BID)): 28.6%
positive fecal occult blood test incidence rate (8.75 mg/knee (BID)): 7.1%
Abdominal Discomfort: number of adverse events (8.75 mg/knee, BID, N = 70): 4
